{
  "source": "patent US20220332708A1",
  "about": "(Cytokinetics, Inc., priority 2021, published 2022)",
  "data": [
    {"test_system": "Bovine cardiac myofibrils", "experiment": "Dose-dependent myofibril ATPase modulation (calcium-buffered, pyruvate kinase and lactate dehydrogenase-coupled ATPase assay at pCa25)", "type": "biochemical", "conditions": "concentration at which ATPase activity was 1.4-fold higher than the bottom of the dose curve, mean of a minimum of two independent tests", "description": "In Vitro Model of Dose-Dependent Myofibril ATPase Modulation\nDose responses were measured using a calcium-buffered, pyruvate kinase and lactate dehydrogenase-coupled ATPase assay containing the following reagents (concentrations expressed are final assay concentrations): Potassium PIPES (12 mM), MgCl2 (2 mM), ATP (1 mM), DTT (1 mM), BSA (0.1 mg/ml), NADH (0.5 mM), PEP (1.5 mM), pyruvate kinase (4 U/ml), lactate dehydrogenase (8 U/ml), and antifoam (90 ppm). The pH was adjusted to 6.80 at 22° C. by addition of potassium hydroxide. Calcium levels were controlled by a buffering system containing 0.6 mM EGTA and varying concentrations of calcium, to achieve a free calcium concentration of 1×10^−4 M to 1×10^−8 M.\nBovine cardiac myofibrils were obtained by homogenizing the appropriate tissue in the presence of detergent. Such treatment removes membranes and majority of soluble cytoplasmic proteins but leaves intact cardiac sarcomeric acto-myosin apparatus. Concentrations of myofibrils were adjusted to achieve the necessary rate of ATP hydrolysis (typically 0.25-1.0 mg/ml).\nChemical entity dose responses were measured at the calcium concentration corresponding to 25% of maximal ATPase activity (pCa25), so a preliminary experiment was performed to test the response of the ATPase activity to free calcium concentrations in the range of 1×10^−4 M to 1×10^−8 M. Subsequently, the assay mixture was adjusted to the pCa25. Assays were performed by first preparing a dilution series of test chemical entity, each with an assay mixture containing potassium Pipes, MgCl2, BSA, DTT, pyruvate kinase, lactate dehydrogenase, myofibrils, antifoam, EGTA, CaCl2), and water. The assay was started by adding an equal volume of solution containing potassium Pipes, MgCl2, BSA, DTT, ATP, NADH, PEP, antifoam, and water. ATP hydrolysis was monitored by absorbance at 340 nm. The resulting dose response curve was fit by the 4 parameter equation y=Bottom+((Top−Bottom)/(1+((EC50/X)^Hill))). […] AC1.4 values reported in the table below are mean values based on a minimum of two independent tests.", "units": {"AC1.4": "µM"}, "values": [
      {"smiles": "Cc1[nH]c(S(=O)(=O)N[C@H]2C[C@H](n3cc(C(F)(F)F)cn3)C2)cc1C(=O)N1CC(C#N)C1", "note": "[Compound 55, 4-(3-cyanoazetidine-1-carbonyl)-5-methyl-N-((trans)-3-(4-(trifluoromethyl)-1H-pyrazol-1-yl)cyclobutyl)-1H-pyrrole-2-sulfonamide]", "AC1.4": 5.7638},
      {"smiles": "Cc1nn([C@H]2C[C@H](NS(=O)(=O)c3cc(C(=O)N4CC(C#N)C4)c(C)[nH]3)C2)cc1C(F)(F)F", "note": "[Compound 56, 4-(3-Cyanoazetidine-1-carbonyl)-5-methyl-N-((trans)-3-(3-methyl-4-(trifluoromethyl)-1H-pyrazol-1-yl)cyclobutyl)-1H-pyrrole-2-sulfonamide]", "AC1.4": 0.9674},
      {"smiles": "Cc1[nH]c(S(=O)(=O)N[C@H]2C[C@H](c3cc(C(F)(F)F)ccn3)C2)cc1C(=O)N1CC(C#N)C1", "note": "[Compound 57, 4-(3-Cyanoazetidine-1-carbonyl)-5-methyl-N-((trans)-3-(4-(trifluoromethyl)pyridin-2-yl)cyclobutyl)-1H-pyrrole-2-sulfonamide]", "AC1.4": 0.8572},
      {"smiles": "Cc1[nH]c(S(=O)(=O)N[C@H]2C[C@H](c3cc(C(F)(F)F)ccn3)C2)cc1C(=O)N1CC(C)(C#N)C1", "note": "[Compound 58]", "AC1.4": 1.0081},
      {"smiles": "CNc1cc2c(cc1S(=O)(=O)N[C@H]1C[C@H](c3cc(C(F)(F)F)ccn3)C1)c(=O)[nH]c(=O)n2C", "note": "[Compound 59]", "AC1.4": 0.4184},
      {"smiles": "CNc1cc2c(cc1S(=O)(=O)N[C@H]1C[C@H](c3cc(C(F)(F)F)ccn3)C1)c(=O)[nH]c(=O)n2C", "note": "[Compound 60, 1-Methyl-7-(methylamino)-2,4-dioxo-N-((trans)-3-(4-(trifluoromethyl)pyridin-2-yl)cyclobutyl)-1,2,3,4-tetrahydroquinazoline-6-sulfonamide]", "AC1.4": 2.062},
      {"smiles": "CNc1cc2c(cc1S(=O)(=O)N[C@H]1C[C@H](n3cc(C(F)(F)F)c(C)n3)C1)c(=O)[nH]c(=O)n2C", "note": "[Compound 61]", "AC1.4": 0.3215},
      {"smiles": "COc1cc2c(cc1S(=O)(=O)N[C@H]1C[C@H](n3cc(C(F)(F)F)c(C)n3)C1)c(=O)[nH]c(=O)n2C", "note": "[Compound 62, 7-Methoxy-1-methyl-N-((trans)-3-(3-methyl-4-(trifluoromethyl)-1H-pyrazol-1-yl)cyclobutyl)-2,4-dioxo-1,2,3,4-tetrahydroquinazoline-6-sulfonamide]", "AC1.4": 0.8691},
      {"smiles": "Cc1[nH]c(S(=O)(=O)N[C@]2(Cc3ccc(Cl)cc3)CCOC2)cc1C(=O)N1CC(F)(F)C1", "note": "[Compound 64, (R)-N-(3-(4-chlorobenzyl)tetrahydrofuran-3-yl)-4-(3,3-difluoroazetidine-1-carbonyl)-5-methyl-1H-pyrrole-2-sulfonamide]", "AC1.4": 0.3886},
      {"smiles": "Cc1cnc(-c2cc(S(=O)(=O)N[C@H]3C[C@H](n4cc(C(F)(F)F)c(C)n4)C3)[nH]c2C)o1", "note": "[Compound 66, 5-Methyl-N-((trans)-3-(3-methyl-4-(trifluoromethyl)-1H-pyrazol-1-yl)cyclobutyl)-4-(5-methyloxazol-2-yl)-1H-pyrrole-2-sulfonamide]", "AC1.4": 1.1207},
      {"smiles": "Cc1[nH]c(S(=O)(=O)N[C@@H]2CCc3cc(Cl)ccc3C2)cc1C(=O)N1CC(C)(C#N)C1", "note": "[Compound 67, (R)-N-(6-chloro-1,2,3,4-tetrahydronaphthalen-2-yl)-4-(3-cyano-3-methylazetidine-1-carbonyl)-5-methyl-1H-pyrrole-2-sulfonamide]", "AC1.4": 0.05605},
      {"smiles": "Cc1[nH]c(S(=O)(=O)N[C@@H]2CCc3c([nH]c4ccccc34)C2)cc1C1=NCC(C)(C)O1", "note": "[Compound 68, (R)-4-(5,5-dimethyl-4,5-dihydrooxazol-2-yl)-5-methyl-N-(2,3,4,9-tetrahydro-1H-carbazol-2-yl)-1H-pyrrole-2-sulfonamide]", "AC1.4": 0.1213},
      {"smiles": "Cc1[nH]c(S(=O)(=O)N[C@@H]2Cc3ccc(Cl)cc3C2)cc1C(=O)N1CC(C)(C#N)C1", "note": "[Compound 69, (R)-N-(5-chloro-2,3-dihydro-1H-inden-2-yl)-4-(3-cyano-3-methylazetidine-1-carbonyl)-5-methyl-1H-pyrrole-2-sulfonamide]", "AC1.4": 0.166},
      {"smiles": "Cc1[nH]c(S(=O)(=O)N[C@@H]2COc3cc(F)c(F)cc3C2)cc1C(=O)N1CC(C)(C#N)C1", "note": "[Compound 70, (S)-4-(3-cyano-3-methylazetidine-1-carbonyl)-N-(6,7-difluorochroman-3-yl)-5-methyl-1H-pyrrole-2-sulfonamide]", "AC1.4": 0.3162},
      {"smiles": "Cc1[nH]c(S(=O)(=O)N[C@@H]2COc3ccc(Cl)cc3C2)cc1C(=O)N1CC(C)(C#N)C1", "note": "[Compound 71, (S)-N-(6-chlorochroman-3-yl)-4-(3-cyano-3-methylazetidine-1-carbonyl)-5-methyl-1H-pyrrole-2-sulfonamide]", "AC1.4": 0.3054},
      {"smiles": "Cc1[nH]c(S(=O)(=O)N[C@@H]2COc3cc(Cl)ccc3C2)cc1C(=O)N1CC(C)(C#N)C1", "note": "[Compound 72, (S)-N-(7-chlorochroman-3-yl)-4-(3-cyano-3-methylazetidine-1-carbonyl)-5-methyl-1H-pyrrole-2-sulfonamide]", "AC1.4": 0.4237},
      {"smiles": "Cc1[nH]c(S(=O)(=O)N[C@@H]2COc3cc(F)c(Cl)cc3C2)cc1C(=O)N1CC(C)(C#N)C1", "note": "[Compound 73, (S)-N-(6-chloro-7-fluorochroman-3-yl)-4-(3-cyano-3-methylazetidine-1-carbonyl)-5-methyl-1H-pyrrole-2-sulfonamide]", "AC1.4": 0.0793},
      {"smiles": "Cc1[nH]c(S(=O)(=O)N[C@@H]2COc3ccc(Cl)cc3[C@@H]2O)cc1C(=O)N1CC(C#N)C1", "note": "[Compound 74, N-((3R,4S)-6-chloro-4-hydroxychroman-3-yl)-4-(3-cyanoazetidine-1-carbonyl)-5-methyl-1H-pyrrole-2-sulfonamide]", "AC1.4": 0.5684},
      {"smiles": "Cc1[nH]c(S(=O)(=O)N[C@H]2COc3ccc(Cl)cc3[C@@H]2O)cc1C(=O)N1CC(C)(C#N)C1", "note": "[Compound 75, N-((3S,4S)-6-chloro-4-hydroxychroman-3-yl)-4-(3-cyano-3-methylazetidine-1-carbonyl)-5-methyl-1H-pyrrole-2-sulfonamide]", "AC1.4": 0.5877},
      {"smiles": "Cc1[nH]c(S(=O)(=O)N[C@@H]2COc3cc(F)c(Cl)cc3[C@H]2O)cc1C(=O)N1CC(C)(C#N)C1", "note": "[Compound 77, N-((3R,4R)-6-chloro-7-fluoro-4-hydroxychroman-3-yl)-4-(3-cyano-3-methylazetidine-1-carbonyl)-5-methyl-1H-pyrrole-2-sulfonamide]", "AC1.4": 0.1896},
      {"smiles": "Cc1[nH]c(S(=O)(=O)N[C@@H]2COc3cc(F)c(Cl)cc3[C@@H]2O)cc1C(=O)N1CC(C)(C#N)C1", "note": "[Compound 78, N-((3R,4S)-6-chloro-7-fluoro-4-hydroxychroman-3-yl)-4-(3-cyano-3-methylazetidine-1-carbonyl)-5-methyl-1H-pyrrole-2-sulfonamide]", "AC1.4": 0.1127},
      {"smiles": "Cc1[nH]c(S(=O)(=O)NC2Cc3cc(Cl)c(Cl)cc3C2)cc1C(=O)N1CC(C)(C#N)C1", "note": "[Compound 79, 4-(3-cyano-3-methylazetidine-1-carbonyl)-N-(5,6-dichloro-2,3-dihydro-1H-inden-2-yl)-5-methyl-1H-pyrrole-2-sulfonamide]", "AC1.4": 0.0599},
      {"smiles": "Cc1[nH]c(S(=O)(=O)N[C@H]2COc3cc(F)c(Cl)cc3C2)cc1C(=O)N1CC(C)(C#N)C1", "note": "[Compound 80, (R)-N-(6-chloro-7-fluorochroman-3-yl)-4-(3-cyano-3-methylazetidine-1-carbonyl)-5-methyl-1H-pyrrole-2-sulfonamide]", "AC1.4": 13.1993}
    ]}
  ]
}
